Converted amounts (≈) assume the structure as drawn.
Key:
Aβ1-42 oligomers = target: T1, Aβ1-42 oligomers (Homo sapiens, UniProt P05067); experiment: NMR binding studies (STD-NMR, trNOESY) with beta-amyloid oligomers; settings: Aβ1-42 80 uM, deuterated PBS pH 7.5
T1 construct: lyophilized Aβ1-42 was dissolved in 10 mM NaOD in D2O at a concentration of 160 μM
Description: The selection was made through sample characterization by NMR spectroscopy, as previously described Immediately before use, lyophilized Aβ1-42 was dissolved in 10 mM NaOD in D2O at a concentration of 160 μM, then diluted 1:1 with 10 mM phosphate buffer saline, pH 7.4 containing 100 mM NaCl (PBS) and ethyl acetate extract of G. tenera or one of the tested compounds. […] The pH of each sample was verified with a Microelectrode (Mettler Toledo) for 5 mm NMR tubes and adjusted with NaOD and/or DCl. All pH values were corrected for isotope effect.
NMR experiments were recorded on a Varian 400-MHz Mercury instrument. The basic VARIAN sequences were employed for 2D-TOCSY, 2D-NOESY, ^13C-HSQC, DOSY and STD experiments. For STD, a train of Gaussian-shaped pulses each of 50 ms was employed to saturate selectively the protein envelope; the total saturation time of the protein envelope was adjusted by the number of shaped pulses and was varied between 3 s and 0.3 s. A ^1H spectrum was acquired with a recycle delay of 60 s to achieve the complete relaxation of all the resonances at each scan.

[1] = tested on: STZ induced diabetic Wistar rats; settings: previous research work; cited from earlier work
[2] = 1H-NMR 2D DOSY diffusion coefficient; type: physicochemical; settings: DOSY spectrum acquired on the G. tenera extract at 25° C.
Description: NMR experiments were recorded on a Varian 400-MHz Mercury instrument. The basic VARIAN sequences were employed for 2D-TOCSY, 2D-NOESY, ^13C-HSQC, DOSY and STD experiments. […] A ^1H spectrum was acquired with a recycle delay of 60 s to achieve the complete relaxation of all the resonances at each scan.

Solubility in PBS = type: physicochemical; settings: pure compound in PBS
[3] = tested on: mouse HII4E hepatoma cells; experiment: In vitro acute toxicity, MTT cell viability assay; type: cell-based; settings: 24 h exposure
Description: Acute cytotoxicity measurements were performed by the MTT method. The 3-(4,5-dimethylthiazol-2-yl)-2,5-diphenyltetrazolium bromide (MTT) assay was used to quantify metabolically viable cells in all samples. Adherent cells (mouse HII4E hepatoma cells) were seeded onto 96-well plates, allowed to attach for 24 h and exposed to the test compound for the following 24 h. Positive control (hydrogen peroxide), negative control (DMSO) and chloramphenicol were also included. At 48 h of culture, MTT was added to the cells at a final concentration of 0.5 mg/mL, followed by an incubation period of 3 h to allow the formazan crystals to form. After incubation, medium was removed, cells were washed twice to remove traces of medium and un-metabolized MTT, and DMSO (100 μL) was added to each well. Solubilisation of formazan crystals was performed by agitation in a 96-well plate shaker for 20 min at room temperature. Absorbance of each well was quantified at 550 nm, using 620 nm as reference wavelength on a scanning multiwell spectrophotometer (automated microplate reader).

T1 sequence (P05067 672-713): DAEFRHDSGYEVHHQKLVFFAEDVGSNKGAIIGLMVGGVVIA

SMILES: O=c1c(-c2ccc(O)cc2)coc2cc(O)cc(O)c12 [genistein]
- binding to Aβ1-42 oligomers (STD-NMR, trNOESY), words (Aβ1-42 oligomers): efficient Aβ oligomer ligand
- blood glucose levels [1]: significantly lowered blood glucose levels

SMILES: O=c1c(-c2ccc(O)cc2)coc2cc(O[C@@H]3O[C@H](CO)[C@@H](O)[C@H](O)[C@H]3O)cc(O)c12 [genistein-7-O-glucoside, Genistein 7-O-β-D-glucoside]
- diffusion coefficient [2]: 2.65±0.035 10^−10 m^2/s
- solubility in PBS (Solubility in PBS): insolubility

SMILES: O=C(N[C@H](CO)[C@H](O)c1ccc([N+](=O)[O-])cc1)C(Cl)Cl [Chloramphenicol, chloramphenicol]
- IC50 [3]: 143 µg/mL (≈ 443 µM)

SMILES: COc1cc(-c2cc(=O)c3c(O)cc(O)cc3o2)ccc1O [chrysoeriol]
- blood glucose levels [1]: significantly lowered blood glucose levels

SMILES: OO [Compound H2O2, hydrogen peroxide]
- IC50 in vitro acute toxicity [3]: 2 µg/mL (≈ 58.8 µM)

SMILES: O=c1cc(-c2ccc(O)cc2)oc2cc(O)cc(O)c12 [apigenin]
- blood glucose levels [1]: significantly lowered blood glucose levels

SMILES: C[S+](C)[O-] [DMSO]
- IC50 in vitro acute toxicity [3]: 199 µg/mL (≈ 2550 µM)
